US11013235B2 (priority 2015, dated 2021)
Like-named read-outs stand apart in the source and are kept apart here.

How the values were obtained:
Format in all cases: in vivo
Rhizoctonia solani [1] = assay: Control of Rhizoctonia solani disease in tobacco (Rs-Nt); conditions: 1 μM spraying every 24 hours for one week, water control 87
Method: (§1) In order to compare the effect of the compounds of formula I to V on the control of diseases in different plants, experiments were conducted in tobacco, tomato and Arabidopsis thaliana plants inoculated with Phytophthora parasitica, Rhizoctonia solani, Alternaria solani, Nocardia sp and Botrytis cinerea, respectively. The compounds were applied by spraying, at a concentration of 1 μM, every 24 hours for one week. The plant mortality rate was determined for the disease produced by Phytophthora parasitica, Rhizoctonia solani and Nocardia sp, while the percentage of leaves with symptoms was determined for the infection by Alternaria solani. In the case of plants affected by Botrytis cinerea, the lesion diameter was measured. […] Each treatment included fifty plants. As control, plants treated with water were studied. The plants of each treatment were previously inoculated with the indicated pathogens, according to different inoculation protocols (Frontiers in Plant Science 3: 268, 1-6, 2012), and later they were treated with the compounds.

Meloidogyne incognita = assay: Nematode control, nodules per plant: Meloidogyne incognita; conditions: 1 μM foliar application every 5 days, evaluation 35 days after, control 34
Method: (§2) The solutions of the compounds were prepared in ethanol and diluted in water, up to a concentration of 1 μM for a foliar application. Applications were conducted every 5 days, spraying only the leafs with each compound. Ten plants were used for each treatment and the final evaluation was performed 35 days after, by quantifying the number of nodules per plant.

Botrytis cinerea [2] = assay: Control of Botrytis cinerea disease in Arabidopsis (Bc-At); conditions: 1 μM spraying every 24 hours for one week, water control 8.7
Method: as §1

Botrytis cinerea [3] = assay: Control of Botrytis cinerea disease in tobacco (Bc-Nt); conditions: 1 μM spraying every 24 hours for one week, water control 6.7
Method: as §1

Nocardia sp = assay: Control of Nocardia sp disease in tobacco (N-Nt); conditions: 1 μM spraying every 24 hours for one week, water control 58
Method: as §1

Phytophthora parasitica = assay: Control of Phytophthora parasitica disease in tobacco (Pp-Nt); conditions: 1 μM spraying every 24 hours for one week, water control 91
Method: as §1

Alternaria solani = assay: Control of Alternaria solani disease in tomato (As-SI); conditions: 1 μM spraying every 24 hours for one week, water control 68
Method: as §1

Botrytis cinerea [4] = assay: Control of Botrytis cinerea disease in tomato (Bc-SI); conditions: 1 μM spraying every 24 hours for one week, water control 7.4
Method: as §1

[5] = tested on: Candidatus 'Liberibacter asiaticus'; conditions: spraying every 15 days, 12 months after treatment, Citrus sinensis with HLB
Radopholus similis = assay: Nematode control, nodules per plant: Radopholus similis; conditions: 1 μM foliar application every 5 days, evaluation 35 days after, control 45
Method: as §2

Rhizoctonia solani [6] = assay: Control of Rhizoctonia solani disease in tomato (Rs-SI); conditions: 1 μM spraying every 24 hours for one week, water control 96
Method: as §1

Pratylenchus coffeae = assay: Nematode control, nodules per plant: Pratylenchus coffeae; conditions: 1 μM foliar application every 5 days, evaluation 35 days after, control 42
Method: as §2

Compound	Rs-Nt: percentage of mortality (Rhizoctonia solani [1])	Mi: number of nodules per plant (Meloidogyne incognita)	Bc-At: mean of the diameter of the lesion (Botrytis cinerea [2])	Bc-Nt: mean of the diameter of the lesion (Botrytis cinerea [3])	N-Nt: percentage of mortality (Nocardia sp)	Pp-Nt: percentage of mortality (Phytophthora parasitica)	As-SI: percentage of leaves with the disease symptoms (Alternaria solani)	Bc-SI: mean of the diameter of the lesion (Botrytis cinerea [4])	Titers of the bacterium ([5]; 0.001 μM)	Titers of the bacterium ([5]; 0.01 μM)	Titers of the bacterium ([5]; 1 μM)	Titers of the bacterium ([5]; 5 μM)	Titers of the bacterium ([5]; 10 μM)	Rs: number of nodules per plant (Radopholus similis)	Rs-SI: percentage of mortality (Rhizoctonia solani [6])	Pc: number of nodules per plant (Pratylenchus coffeae)
Cc1c(CCC(=O)NCC(O)CO)c(=O)oc2cc3occ(-c4ccccc4)c3cc12 (stereo not shown) [II, N-(2,3-dihydroxypropyl)-3-{4-methyl-2-oxo-6-phenyl-2H-furo[3,2-g]chromen-3-yl}propanamide]	3%	3	0.5 mm	0.9 mm	1%	2%	2%	0.8 mm	756 copies per reaction	14 copies per reaction	14 copies per reaction	76 copies per reaction	8420 copies per reaction	2	2%	13
CC1=COC2c3cc(CC(=O)NCC(O)CO)c(=O)oc3C=CC12 (stereo not shown) [IIA, N-(2,3-dihydroxypropyl)-2-{5-methyl-11-oxo-3,10-dioxatricyclo[7.4.0.0^{2,6}]trideca-1(9),4,7,12-tetraen-12-yl}acetamide]	2%	2	0.5 mm	0.9 mm	1%	1%	1%	0.8 mm	598 copies per reaction	14 copies per reaction	0 copies per reaction	98 copies per reaction	9845 copies per reaction	17	3%	14
O=C(Cc1cc2c(oc1=O)C=CC1C(c3ccccc3)=COC21)NCC(O)CO (stereo not shown) [IIB, N-(2,3-dihydroxypropyl)-2-{11-oxo-5-phenyl-3,10-dioxatricyclo[7.4.0.0^{2,6}]trideca-1(9),4,7,12-tetraen-12-yl}acetamide]	3%	3	1.5 mm	1.5 mm	1%	2%	2%	2.5 mm	432 copies per reaction	17 copies per reaction	2 copies per reaction	43 copies per reaction	8654 copies per reaction	2	2%	14
O=C(Cc1cc2c(oc1=O)C=CC1C(C3CCCCC3)=COC21)NCC(O)CO (stereo not shown) [IIC, 2-{5-cyclohexyl-11-oxo-3,10-dioxatricyclo[7.4.0.0^{2,6}]trideca-1(9),4,7,12-tetraen-12-yl}-N-(2,3-dihydroxypropyl)acetamide]	4%	4	2.4 mm	1.5 mm	2%	1%	3%	0.8 mm	123 copies per reaction	25 copies per reaction	2 copies per reaction	23 copies per reaction	4562 copies per reaction	18	2%	2
O=C(Cc1cc2c(oc1=O)C=CC1C(C3CCCC3)=COC21)NCC(O)CO (stereo not shown) [IID, 2-{5-cyclopentyl-11-oxo-3,10-dioxatricyclo[7.4.0.0^{2,6}]trideca-1(9),4,7,12-tetraen-12-yl}-N-(2,3-dihydroxypropyl)acetamide]	0%	0	0.7 mm	0.9 mm	1%	0%	8%	1.2 mm	587 copies per reaction	12 copies per reaction	2 copies per reaction	87 copies per reaction	1351 copies per reaction	0	2%	17
O=C(Cc1cc2c(oc1=O)C=CC1C(c3ccc4ccccc4c3)=COC21)NCC(O)CO (stereo not shown) [IIE, N-(2,3-dihydroxypropyl)-2-[5-(naphthalen-2-yl)-11-oxo-3,10-dioxatricyclo[7.4.0.0^{2,6}]trideca-1(9),4,7,12-tetraen-12-yl]acetamide]	0%	0	1.2 mm	0.3 mm	0%	0%	7%	0.8 mm	985 copies per reaction	1 copies per reaction	5 copies per reaction	98 copies per reaction	2547 copies per reaction	0	0%	0
O=C(Cc1cc2c(oc1=O)C=CC1C=COC21)NCC(O)CO (stereo not shown) [IIF, N-(2,3-dihydroxypropyl)-2-{11-oxo-3,10-dioxatricyclo[7.4.0.0^{2,6}]trideca-1(9),4,7,12-tetraen-12-yl}acetamide]	0%	0	1.1 mm	2.0 mm	0%	0%	5%	1.6 mm	657 copies per reaction	9 copies per reaction	0 copies per reaction	67 copies per reaction	6547 copies per reaction	0	1%	0
